The values that follow come from patent publication US10106530B2, “Pyrazolyl substituted tetrahydropyranylsulfones” (GRÜNENTHAL GMBH, priority 2015, dated 2018).

The target of this experiment is T1, Human CaV2.2 channels (Homo sapiens, UniProt Q00975).
T1 construct: expressed in transfected cells; also stably expressing Kir2.3)
Put plainly: Fluorescence assay for CaV2.2 channels using potassium depolarization to induce channel opening (FLIPR, Fluo 4). Format: cell-based. The note with it: 30 mM KCl assay buffer (inactivated channel state), HEK293 cells; for Activity Category: %-Inhib (CaV2.2) @3 μM @30 mM KCl: 3 μM test compound; for inhibition at 3 µM: HEK293, 3 μM test compound, read-out: Activity Category: %-Inhib (CaV2.2) @3 μM @30 mM KCl. The text has this: In the process, the Ca^2+ influx is quantified in the FLIPR assay with the aid of a Ca^2+-sensitive dye (type Fluo-4, Molecular Probes Europe BV, Leiden, the Netherlands) in a fluorescent imaging plate reader (FLIPR 3, Molecular Devices, Sunnyvale, USA), as described hereinafter.
[drawing 69] 2. Assay Descriptions and Biological Data: 2.1 Fluorescence Assay for CaV2.2 Channels Using Potassium Depolarization to Induce Channel Opening
Human CaV2.2 channels were stably expressed in HEK293 cells together with alpha2-delta and beta subunits of voltage gated calcium channels. In addition, an inwardly rectifying potassium channel (Kir2.3) was stably expressed in these cells to augment control of the cell membrane potential by the concentration of extracellular potassium ions. Raise of the extracellular potassium concentration leads to depolarization of the membrane potential and thus regulates the voltage dependent state of CaV2.2 channels. For preparation, cells were seeded in black poly-D-lysine coated 96-well plates (Becton Dickinson, Biocoat 4640) in 100 μL medium [500 mL DMEM/F-12 plus Glutamax (Invitrogen 31331-093) plus 5.5 mL MEM NEAA 100× (Invitrogen 11140-035) plus 50 mL FBS decomplemented (Invitrogen 10270-106) plus 200 μg/mL Geneticin (Invitrogen 10131-027) plus 50 μg/mL Hygromycin B (Invitrogen 10687-010) plus 2 μg/mL Blasticidin (anti-b15b Invivo-Gen) plus 0.2 μg/mL Puromycin (A 11138-03)] at a cell density of 30.000 cells per well. Plates were incubated at 37° C. (5% CO2) for 20 to 23 h. On the day of experiment medium was discarded and cells were loaded with Fluo 4 by addition of 100 μL of basic assay buffer (10 mM HEPES, 1 mM KCl, 149 mM NaCl, 0.8 mM CaCl2, 1.7 mM MgCl2, 10 mM Glucose, 0.1% BSA. pH 7.4) containing 2 μM Fluo 4 (Molecular Probes; F-14201), 0.01% pluronic acid (Molecular Probes; P-6866) and 2.5 mM probenecid (Molecular Probes; P36400). Cells were incubated in the dark at 25° C. for 60 min. Then dye containing buffer was discarded and 100 μL basic (1 mM KCl) or alternative (30 mM KCl) assay buffer was added. The alternative assay buffer contained altered concentrations of KCl (30 mM) and NaCl (120 mM) and was used in order to promote the inactivated channel state. After that 25 μL of basic or alternative assay buffer with or without test compound were added and cells were incubated again in the dark at 25° C. for 15 min. Fluorescence intensity was measured on a FLIPR 3 instrument (Molecular Devices Corp., Sunnyvale, Calif.) with excitation at 480 nm and emission at 535 nm. After continuously reading fluorescence for 30 sec, 50 μL of basic assay buffer containing 210 mM KCl(NaCl omitted) were added for depolarization. Peak fluorescent signal intensity was determined and the amplitude of the peak signal, normalized to base line, was used to measure channel inhibition by test compounds.

T1 sequence (Q00975 whole entry): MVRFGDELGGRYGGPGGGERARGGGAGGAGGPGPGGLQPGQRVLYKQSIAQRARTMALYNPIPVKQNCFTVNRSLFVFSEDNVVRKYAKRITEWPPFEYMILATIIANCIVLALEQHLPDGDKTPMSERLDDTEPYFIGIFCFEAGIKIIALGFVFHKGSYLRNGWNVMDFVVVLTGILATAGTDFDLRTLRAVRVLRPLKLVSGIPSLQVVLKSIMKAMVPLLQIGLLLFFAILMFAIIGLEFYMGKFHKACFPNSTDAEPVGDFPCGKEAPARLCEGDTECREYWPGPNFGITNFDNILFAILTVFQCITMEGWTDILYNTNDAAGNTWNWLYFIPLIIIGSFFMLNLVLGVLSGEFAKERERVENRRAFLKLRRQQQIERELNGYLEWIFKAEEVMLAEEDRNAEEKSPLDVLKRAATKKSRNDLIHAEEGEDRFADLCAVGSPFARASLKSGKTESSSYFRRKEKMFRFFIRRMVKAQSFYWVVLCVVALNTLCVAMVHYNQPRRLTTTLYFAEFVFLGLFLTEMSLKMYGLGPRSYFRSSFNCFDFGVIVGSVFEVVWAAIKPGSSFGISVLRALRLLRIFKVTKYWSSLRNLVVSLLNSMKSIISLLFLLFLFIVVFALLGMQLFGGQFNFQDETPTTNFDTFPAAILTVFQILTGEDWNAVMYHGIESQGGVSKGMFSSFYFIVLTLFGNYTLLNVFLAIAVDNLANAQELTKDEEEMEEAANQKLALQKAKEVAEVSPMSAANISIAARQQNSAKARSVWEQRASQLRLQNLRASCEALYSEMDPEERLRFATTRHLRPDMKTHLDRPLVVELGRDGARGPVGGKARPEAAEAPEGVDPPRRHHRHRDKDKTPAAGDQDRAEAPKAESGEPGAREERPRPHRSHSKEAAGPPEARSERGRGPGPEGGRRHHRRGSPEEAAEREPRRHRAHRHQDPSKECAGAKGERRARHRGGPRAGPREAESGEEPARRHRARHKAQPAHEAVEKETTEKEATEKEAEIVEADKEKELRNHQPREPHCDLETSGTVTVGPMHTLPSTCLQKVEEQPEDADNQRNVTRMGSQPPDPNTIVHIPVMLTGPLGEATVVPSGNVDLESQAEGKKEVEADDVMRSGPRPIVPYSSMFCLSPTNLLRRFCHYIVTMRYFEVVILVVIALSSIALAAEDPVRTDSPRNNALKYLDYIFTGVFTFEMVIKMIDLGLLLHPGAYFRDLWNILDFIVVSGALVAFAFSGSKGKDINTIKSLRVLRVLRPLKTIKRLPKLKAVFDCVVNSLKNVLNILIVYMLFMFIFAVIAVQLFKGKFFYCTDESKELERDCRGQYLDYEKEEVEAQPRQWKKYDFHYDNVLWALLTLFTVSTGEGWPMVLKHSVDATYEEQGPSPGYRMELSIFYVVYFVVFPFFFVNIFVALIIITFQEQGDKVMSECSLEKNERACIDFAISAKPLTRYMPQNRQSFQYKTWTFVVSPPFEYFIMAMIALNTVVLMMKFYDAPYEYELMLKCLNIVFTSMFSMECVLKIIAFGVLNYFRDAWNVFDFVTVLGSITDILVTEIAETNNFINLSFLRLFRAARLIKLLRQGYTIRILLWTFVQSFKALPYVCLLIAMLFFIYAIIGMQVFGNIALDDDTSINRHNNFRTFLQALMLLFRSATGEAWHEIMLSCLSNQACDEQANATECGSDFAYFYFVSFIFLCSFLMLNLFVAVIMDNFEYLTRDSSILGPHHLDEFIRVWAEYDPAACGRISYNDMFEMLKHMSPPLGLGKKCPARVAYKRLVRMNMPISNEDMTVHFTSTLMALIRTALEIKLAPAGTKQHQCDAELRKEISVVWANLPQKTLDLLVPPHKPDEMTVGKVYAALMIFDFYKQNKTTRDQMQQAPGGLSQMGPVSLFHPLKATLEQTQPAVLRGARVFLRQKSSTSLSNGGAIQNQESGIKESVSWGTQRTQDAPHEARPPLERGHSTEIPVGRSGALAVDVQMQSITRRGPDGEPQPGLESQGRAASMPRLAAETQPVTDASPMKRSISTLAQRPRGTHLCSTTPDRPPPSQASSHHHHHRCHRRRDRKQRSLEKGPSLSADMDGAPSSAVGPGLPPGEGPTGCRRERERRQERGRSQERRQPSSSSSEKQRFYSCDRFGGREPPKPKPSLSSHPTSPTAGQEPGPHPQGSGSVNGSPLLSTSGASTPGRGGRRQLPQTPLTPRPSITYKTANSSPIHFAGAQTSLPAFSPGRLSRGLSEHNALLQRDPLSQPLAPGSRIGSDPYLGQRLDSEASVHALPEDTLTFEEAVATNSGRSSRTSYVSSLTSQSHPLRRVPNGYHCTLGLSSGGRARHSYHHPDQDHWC

With `CC1(S(=O)(=O)c2cccc(C(F)(F)F)c2)CCOC(c2cc(S(=O)(=O)C3COC3)n[nH]2)C1` (stereo not drawn) [Example 4 cis-EN1, 5-[4-Methyl-4-[[3-(trifluoromethyl)phenyl]sulfonyl]-tetrahydro-pyran-2-yl]-3-(oxetan-3-ylsulfonyl)-1H-pyrazole], where the note is “listed as 4 cis-EN1”, the “Activity Category: %-Inhib (CaV2.2) @3 μM @30 mM KCl” value (from here on “Activity Category: %-Inhib”) is “C (%-Inhibition >40% up to ≤75%)”.

For `CC1(S(=O)(=O)c2cccc(C(F)(F)F)c2)CCOC(c2cc(S(C)(=O)=O)n[nH]2)C1` (stereo not drawn) [Example 37 cis-EN2, 5-Methylsulfonyl-3-[4-methyl-4-[[3-(trifluoromethyl)phenyl]sulfonyl]-tetrahydro-pyran-2-yl]-1H-pyrazole], under “listed as 37 cis-EN2”, the “Activity Category: %-Inhib” value is on record as “B (%-Inhibition >75% up to ≤95%)”.

Take `CC1(S(=O)(=O)c2cccc(C(F)(F)F)c2)CCOC(c2cc(S(=O)(=O)CC(F)F)n[nH]2)C1` (stereo not drawn) [Example 3 cis-EN1, 3-(2,2-Difluoro-ethylsulfonyl)-5-[4-methyl-4-[[3-(trifluoromethyl)phenyl]sulfonyl]-tetrahydro-pyran-2-yl]-1H-pyrazole]: the inhibition at 3 µM lay in the range of 30 to 40%.

As to `CC(C)(CO)c1cc(C2CC(C)(S(=O)(=O)c3cccc(C(F)(F)F)c3)CCO2)[nH]n1` (stereo not drawn) [Example 34 cis-EN1, 2-Methyl-2-[5-[4-methyl-4-[[3-(trifluoromethyl)phenyl]sulfonyl]-tetrahydro-pyran-2-yl]-1H-pyrazol-3-yl]-propan-1-ol], the inhibition at 3 µM fell in the range of 75 to 95%.

For `CC(C)(C)CS(=O)(=O)c1cc(C2CC(C)(S(=O)(=O)c3cccc(C(F)(F)F)c3)CCO2)[nH]n1` (stereo not drawn) [Example 36 cis-EN1, 3-(2,2-Dimethyl-propylsulfonyl)-5-[4-methyl-4-[[3-(trifluoromethyl)phenyl]sulfonyl]-tetrahydro-pyran-2-yl]-1H-pyrazole], the inhibition at 3 µM lay in the range of 75 to 95%.

Regarding `C[C@@]1(S(=O)(=O)c2cccc(C(F)(F)F)c2)CCO[C@@H](c2cc(S(=O)(=O)C(F)F)n[nH]2)C1` (racemic) [[trans-rac] Example 1, 3-(Difluoro-methylsulfonyl)-5-[4-methyl-4-[[3-(trifluoromethyl)phenyl]sulfonyl]-tetrahydro-pyran-2-yl]-1H-pyrazole], the inhibition at 3 µM fell in the range of 75 to 95%.

Regarding `CC(C)CS(=O)(=O)c1cc(C2CC(C)(S(=O)(=O)c3cccc(C(F)(F)F)c3)CCO2)[nH]n1` (stereo not drawn) [Example 35 cis-EN2, 3-(2-Methyl-propylsulfonyl)-5-[4-methyl-4-[[3-(trifluoromethyl)phenyl]sulfonyl]-tetrahydro-pyran-2-yl]-1H-pyrazole], the “Activity Category: %-Inhib” value is “A (%-Inhibition >95%)”.

Turning to `CC1(S(=O)(=O)c2cccc(C(F)(F)F)c2)CCOC(c2cc(CC(F)F)n[nH]2)C1` (stereo not drawn) [Example 14 cis-EN1, 3-(2,2-Difluoro-ethyl)-5-[4-methyl-4-[[3-(trifluoromethyl)phenyl]sulfonyl]-tetrahydro-pyran-2-yl]-1H-pyrazole], the inhibition at 3 µM fell in the range of 75 to 95%.

`COCCS(=O)(=O)c1cc(C2CC(C)(S(=O)(=O)c3cccc(C(F)(F)F)c3)CCO2)[nH]n1` (stereo not drawn) [Example 5 cis-EN2, 3-(2-Methoxy-ethylsulfonyl)-5-[4-methyl-4-[[3-(trifluoromethyl)phenyl]sulfonyl]-tetrahydro-pyran-2-yl]-1H-pyrazole]: the “Activity Category: %-Inhib” value (listed as 5 cis-EN2) is “C (%-Inhibition >40% up to ≤75%)”.

As for `CC1(S(=O)(=O)c2cccc(C(F)(F)F)c2)CCOC(c2cc(CCS(C)(=O)=O)n[nH]2)C1` (stereo not drawn) [Example 9 cis-EN1, 3-(2-Methylsulfonyl-ethyl)-5-[4-methyl-4-[[3-(trifluoromethyl)phenyl]sulfonyl]-tetrahydro-pyran-2-yl]-1H-pyrazole], the inhibition at 3 µM lay within 40 to 75%.

For the compound `CC(C)(c1cc(C2CC(C)(S(=O)(=O)c3cccc(C(F)(F)F)c3)CCO2)[nH]n1)S(C)(=O)=O` (stereo not drawn) [Example 7 cis-EN1, 3-(1-Methyl-1-methylsulfonyl-ethyl)-5-[4-methyl-4-[[3-(trifluoromethyl)phenyl]sulfonyl]-tetrahydro-pyran-2-yl]-1H-pyrazole], the inhibition at 3 µM fell in the range of 75 to 95%.

Consider `CC1(S(=O)(=O)c2cccc(C(F)(F)F)c2)CCOC(c2cc(S(C)(=O)=O)n[nH]2)C1` (stereo not drawn) [Example 37 cis-EN1, 5-Methylsulfonyl-3-[4-methyl-4-[[3-(trifluoromethyl)phenyl]sulfonyl]-tetrahydro-pyran-2-yl]-1H-pyrazole], for which the “Activity Category: %-Inhib” value (listed as 37 cis-EN1) is given as “C (%-Inhibition >40% up to ≤75%)”.

As for `CC1(S(=O)(=O)c2cccc(C(F)(F)F)c2)CCOC(c2cc(C(F)F)[nH]n2)C1` (racemic) [[trans-rac] Example 12, 5-(Difluoro-methyl)-3-[4-methyl-4-[[3-(trifluoromethyl)phenyl]sulfonyl]-tetrahydro-pyran-2-yl]-1H-pyrazole], the inhibition at 3 µM lay in the range of 75 to 95%.

Take `CC(C)CS(=O)(=O)c1cc(C2CC(C)(S(=O)(=O)c3cccc(C(F)(F)F)c3)CCO2)[nH]n1` (stereo not drawn) [Example 35 cis-EN1, 3-(2-Methyl-propylsulfonyl)-5-[4-methyl-4-[[3-(trifluoromethyl)phenyl]sulfonyl]-tetrahydro-pyran-2-yl]-1H-pyrazole]: the inhibition at 3 µM fell in the range of 75 to 95%.

With `CC1(S(=O)(=O)c2cccc(C(F)(F)F)c2)CCOC(c2cc(CC(F)F)n[nH]2)C1` (stereo not drawn) [Example 14 cis-EN2, 3-(2,2-Difluoro-ethyl)-5-[4-methyl-4-[[3-(trifluoromethyl)phenyl]sulfonyl]-tetrahydro-pyran-2-yl]-1H-pyrazole], the “Activity Category: %-Inhib” value was “A (%-Inhibition >95%)”.

As for `CC(C)(O)c1cc(C2CC(C)(S(=O)(=O)c3cccc(C(F)(F)F)c3)CCO2)[nH]n1` (stereo not drawn) [Example 19 cis-EN2, 2-[5-[4-Methyl-4-[[3-(trifluoromethyl)phenyl]sulfonyl]-tetrahydro-pyran-2-yl]-1H-pyrazol-3-yl]-propan-2-ol], the “Activity Category: %-Inhib” value (listed as 19 cis-EN2) is given as “C (%-Inhibition >40% up to ≤75%)”.

With `COCC(C)(C)c1cc(C2CC(C)(S(=O)(=O)c3cccc(C(F)(F)F)c3)CCO2)[nH]n1` (stereo not drawn) [Example 33 cis-EN1, 3-(2-Methoxy-1,1-dimethyl-ethyl)-5-[4-methyl-4-[[3-(trifluoromethyl)phenyl]sulfonyl]-tetrahydro-pyran-2-yl]-1H-pyrazole], the inhibition at 3 µM is above 95%.

Regarding `CC1(S(=O)(=O)c2cccc(C(F)(F)F)c2)CCOC(c2cc(S(=O)(=O)CC(F)(F)F)n[nH]2)C1` (stereo not drawn) [Example 29 cis-EN1, 5-[4-Methyl-4-[[3-(trifluoromethyl)phenyl]sulfonyl]-tetrahydro-pyran-2-yl]-3-(2,2,2-trifluoro-ethylsulfonyl)-1H-pyrazole], the inhibition at 3 µM was 75 to 95%.
